Data as given in PMC2845880 (Bioorganic & medicinal chemistry letters, 2010).

Experiments:
[1] = system: Plasmodium falciparum (ring stage and schizont); assay: In vitro antiparasitic evaluation against Plasmodium falciparum; assay type: cell-based
[2] = system: T. b. brucei, T. cruzi, Leishmania infantum, Plasmodium falciparum; assay: In vitro biological evaluation against protozoa; assay type: cell-based; conditions: in vitro protozoa panel
TbMCA2 = biological target: T1, TbMCA2 (Trypanosoma brucei brucei, UniProt Q8T8E7); assay: In vitro inhibition of TbMCA2; assay type: biochemical; conditions: P1 tail modification / peptoid backbone
T1 sequence (Q8T8E7 1-347): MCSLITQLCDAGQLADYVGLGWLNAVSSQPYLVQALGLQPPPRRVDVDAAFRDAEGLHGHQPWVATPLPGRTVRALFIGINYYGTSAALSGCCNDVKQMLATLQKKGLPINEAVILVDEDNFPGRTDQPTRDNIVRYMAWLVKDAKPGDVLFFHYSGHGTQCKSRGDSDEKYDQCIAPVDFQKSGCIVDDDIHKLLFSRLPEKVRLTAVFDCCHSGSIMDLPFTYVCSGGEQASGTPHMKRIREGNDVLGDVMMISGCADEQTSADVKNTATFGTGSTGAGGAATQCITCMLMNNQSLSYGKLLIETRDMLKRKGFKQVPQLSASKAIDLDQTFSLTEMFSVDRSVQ

[3] = system: human lung fibroblasts (MRC-5); assay: Cytotoxicity on human lung fibroblasts; assay type: cell-based

SMILES | Antiparasitic activity against P. falciparum (in words) [1] | Antiparasitic activity (in words) [2] | further results
Cn1c(C(=O)[C@H](CCCNC(=N)N)NC(=O)OCc2ccccc2)nc2ccccc21 [Compound 14] | very modest |  | 
NCCCC[C@H](NC(=O)OCc1ccccc1)C(=O)c1nc2ccccc2s1 [Compound 16] |  | modest antiparasitic activities | 
N#C[C@H](Cc1ccc(N)cc1)NC(=O)OCc1ccccc1 [Compound 2] |  |  | Activity on TbMCA2 (in words) (TbMCA2): inactive
N=C(N)NCCC[C@@H](/C=C/S(=O)(=O)c1ccccc1)NC(=O)OCc1ccccc1 [Compound 15] | modest antiparasitic activity |  | 
N#C[C@H](CCCNC(=N)N)NC(=O)OCc1ccccc1 [Compound 1] |  | no antiparasitic activity | 
N=C(N)NCCC[C@H](NC(=O)OCc1ccccc1)C(=O)c1nc2ccccc2s1 [Compound 11] | very modest |  | Cytotoxicity (in words) [3]: without cytotoxicity
N=C(N)NCCCC[C@H](NC(=O)OCc1ccccc1)C(=O)c1nc2ccccc2s1 [Compound 17] |  | modest antiparasitic activities | 
N#C[C@H](Cc1ccc(NC(=N)N)cc1)NC(=O)OCc1ccccc1 [Compound 3] |  |  | Activity on TbMCA2 (in words) (TbMCA2): inactive
